{
  "source": "ChEMBL document CHEMBL1201862",
  "about": "“PubChem BioAssay data set” (2004)",
  "assay_type_in_all_cases": "functional",
  "key": {"[1]": {"target": "Tyrosine-protein kinase JAK2 (Homo sapiens, UniProt O60674)"}, "[2]": {"target": "Protein kinase C delta type (Homo sapiens, UniProt Q05655)"}, "[3]": {"target": "Serine/threonine-protein kinase D2 (Homo sapiens, UniProt Q9BZL6)"}, "[4]": {"target": "Tyrosine-protein kinase receptor TYRO3 (Homo sapiens, UniProt Q06418)", "sequence (Q06418 whole entry)": "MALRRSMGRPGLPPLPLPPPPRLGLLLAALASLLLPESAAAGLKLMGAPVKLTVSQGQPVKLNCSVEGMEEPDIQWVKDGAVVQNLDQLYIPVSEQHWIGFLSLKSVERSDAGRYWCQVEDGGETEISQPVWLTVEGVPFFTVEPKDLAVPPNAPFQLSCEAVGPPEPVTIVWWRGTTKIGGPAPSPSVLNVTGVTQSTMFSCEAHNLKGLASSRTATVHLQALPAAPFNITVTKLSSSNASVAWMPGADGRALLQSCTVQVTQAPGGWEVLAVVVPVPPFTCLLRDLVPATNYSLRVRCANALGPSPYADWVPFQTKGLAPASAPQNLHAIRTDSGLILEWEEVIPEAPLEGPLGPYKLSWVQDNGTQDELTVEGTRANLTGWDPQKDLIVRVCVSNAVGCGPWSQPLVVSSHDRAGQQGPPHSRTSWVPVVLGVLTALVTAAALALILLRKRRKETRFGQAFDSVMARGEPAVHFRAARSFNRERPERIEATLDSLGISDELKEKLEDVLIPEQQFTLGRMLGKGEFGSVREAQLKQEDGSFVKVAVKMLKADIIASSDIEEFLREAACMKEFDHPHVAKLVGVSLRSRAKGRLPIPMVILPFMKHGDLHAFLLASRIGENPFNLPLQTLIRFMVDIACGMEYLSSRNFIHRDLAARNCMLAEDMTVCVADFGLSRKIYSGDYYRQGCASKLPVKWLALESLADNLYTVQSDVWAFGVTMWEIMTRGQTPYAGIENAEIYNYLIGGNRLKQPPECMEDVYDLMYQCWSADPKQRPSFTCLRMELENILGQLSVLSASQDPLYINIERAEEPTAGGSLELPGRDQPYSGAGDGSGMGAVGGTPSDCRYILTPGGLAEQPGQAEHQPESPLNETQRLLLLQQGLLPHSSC"}, "[5]": {"target": "Testis-specific serine/threonine-protein kinase 2 (Homo sapiens, UniProt Q96PF2)"}, "[6]": {"target": "Death-associated protein kinase 3 (Homo sapiens, UniProt O43293)"}, "[7]": {"target": "Mitogen-activated protein kinase 8 (Homo sapiens, UniProt P45983)"}, "[8]": {"target": "Serine/threonine-protein kinase pim-1 (Homo sapiens, UniProt P11309)"}, "[9]": {"target": "Mast/stem cell growth factor receptor Kit (Homo sapiens, UniProt P10721)"}, "[10]": {"target": "Serine/threonine-protein kinase PAK 1 (Homo sapiens, UniProt Q13153)"}, "[11]": {"target": "Mitogen-activated protein kinase 9 (Homo sapiens, UniProt P45984)"}, "[12]": {"target": "Serine/threonine-protein kinase TAO1 (Homo sapiens, UniProt Q7L7X3)"}, "[13]": {"target": "Proto-oncogene tyrosine-protein kinase ROS (Homo sapiens, UniProt P08922)"}, "[14]": {"target": "Non-receptor tyrosine-protein kinase TYK2 (Homo sapiens, UniProt P29597)"}, "[15]": {"target": "Protein kinase C gamma type (Homo sapiens, UniProt P05129)"}, "[16]": {"target": "Proto-oncogene tyrosine-protein kinase Src (Homo sapiens, UniProt P12931)", "sequence (P12931 2-536 limits assumed)": "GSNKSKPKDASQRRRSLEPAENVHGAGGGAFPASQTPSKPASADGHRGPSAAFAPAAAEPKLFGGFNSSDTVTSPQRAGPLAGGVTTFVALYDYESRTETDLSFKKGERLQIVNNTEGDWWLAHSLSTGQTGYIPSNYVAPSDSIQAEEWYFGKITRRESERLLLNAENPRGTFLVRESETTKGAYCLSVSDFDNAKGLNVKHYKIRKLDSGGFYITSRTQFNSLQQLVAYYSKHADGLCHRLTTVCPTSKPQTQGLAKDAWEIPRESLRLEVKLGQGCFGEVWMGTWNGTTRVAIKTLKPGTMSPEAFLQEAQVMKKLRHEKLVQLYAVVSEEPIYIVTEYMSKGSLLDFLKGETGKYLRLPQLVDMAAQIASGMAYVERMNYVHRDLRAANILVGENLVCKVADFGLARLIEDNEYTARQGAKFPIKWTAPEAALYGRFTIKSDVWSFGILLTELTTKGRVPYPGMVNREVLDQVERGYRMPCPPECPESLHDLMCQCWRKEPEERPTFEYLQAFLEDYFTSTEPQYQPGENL"}, "[17]": {"target": "MAP kinase-activated protein kinase 3 (Homo sapiens, UniProt Q16644)"}, "[18]": {"target": "Casein kinase I isoform delta (Homo sapiens, UniProt P48730)", "sequence (P48730 whole entry, canonical isoform)": "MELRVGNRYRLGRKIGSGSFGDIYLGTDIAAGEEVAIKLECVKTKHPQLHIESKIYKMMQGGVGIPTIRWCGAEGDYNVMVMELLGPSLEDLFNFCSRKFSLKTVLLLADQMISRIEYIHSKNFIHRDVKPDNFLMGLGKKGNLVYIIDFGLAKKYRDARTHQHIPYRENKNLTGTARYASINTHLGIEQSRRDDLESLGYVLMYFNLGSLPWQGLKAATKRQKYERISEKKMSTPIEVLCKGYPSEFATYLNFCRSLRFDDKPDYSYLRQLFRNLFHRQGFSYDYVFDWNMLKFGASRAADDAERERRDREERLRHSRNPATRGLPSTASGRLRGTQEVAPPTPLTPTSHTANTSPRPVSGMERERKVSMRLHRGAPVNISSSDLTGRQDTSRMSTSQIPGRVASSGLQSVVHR"}, "[19]": {"target": "Calcium/calmodulin-dependent protein kinase type II subunit beta (Homo sapiens, UniProt Q13554)"}, "[20]": {"target": "Vascular endothelial growth factor receptor 2 (Homo sapiens, UniProt P35968)"}, "[21]": {"target": "Insulin-like growth factor 1 receptor (Homo sapiens, UniProt P08069)", "test": "Navigating the Kinome. Panel member name: IGF1R"}, "[22]": {"target": "Mitogen-activated protein kinase 1 (Homo sapiens, UniProt P28482)"}, "[23]": {"target": "Protein kinase C iota type (Homo sapiens, UniProt P41743)"}, "[24]": {"target": "cAMP-dependent protein kinase catalytic subunit PRKX (Homo sapiens, UniProt P51817)", "sequence (P51817 whole entry)": "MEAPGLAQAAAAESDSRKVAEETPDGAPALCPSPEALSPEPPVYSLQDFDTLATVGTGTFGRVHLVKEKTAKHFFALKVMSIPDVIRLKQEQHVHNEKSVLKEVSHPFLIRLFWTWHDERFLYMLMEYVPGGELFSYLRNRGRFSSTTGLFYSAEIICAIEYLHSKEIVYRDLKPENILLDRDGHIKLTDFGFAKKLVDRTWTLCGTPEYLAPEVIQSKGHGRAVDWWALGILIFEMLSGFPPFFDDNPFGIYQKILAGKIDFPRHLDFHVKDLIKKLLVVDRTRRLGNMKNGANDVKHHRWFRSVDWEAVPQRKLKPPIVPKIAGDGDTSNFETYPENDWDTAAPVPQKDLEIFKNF"}, "[25]": {"target": "Leucine-rich repeat serine/threonine-protein kinase 2 (Homo sapiens, UniProt Q5S007)"}, "Aurora kinase B": {"target": "Aurora kinase B (Homo sapiens, UniProt Q96GD4)"}, "[26]": {"target": "Interleukin-1 receptor-associated kinase 4 (Homo sapiens, UniProt Q9NWZ3)"}, "[27]": {"target": "Cyclin-dependent kinase 7 (Homo sapiens, UniProt P50613)"}, "[28]": {"target": "BDNF/NT-3 growth factors receptor (Homo sapiens, UniProt Q16620)"}, "[29]": {"target": "Mitogen-activated protein kinase 12 (Homo sapiens, UniProt P53778)"}, "[30]": {"target": "Mitogen-activated protein kinase kinase kinase kinase 4 (Homo sapiens, UniProt O95819)", "sequence (O95819 whole entry)": "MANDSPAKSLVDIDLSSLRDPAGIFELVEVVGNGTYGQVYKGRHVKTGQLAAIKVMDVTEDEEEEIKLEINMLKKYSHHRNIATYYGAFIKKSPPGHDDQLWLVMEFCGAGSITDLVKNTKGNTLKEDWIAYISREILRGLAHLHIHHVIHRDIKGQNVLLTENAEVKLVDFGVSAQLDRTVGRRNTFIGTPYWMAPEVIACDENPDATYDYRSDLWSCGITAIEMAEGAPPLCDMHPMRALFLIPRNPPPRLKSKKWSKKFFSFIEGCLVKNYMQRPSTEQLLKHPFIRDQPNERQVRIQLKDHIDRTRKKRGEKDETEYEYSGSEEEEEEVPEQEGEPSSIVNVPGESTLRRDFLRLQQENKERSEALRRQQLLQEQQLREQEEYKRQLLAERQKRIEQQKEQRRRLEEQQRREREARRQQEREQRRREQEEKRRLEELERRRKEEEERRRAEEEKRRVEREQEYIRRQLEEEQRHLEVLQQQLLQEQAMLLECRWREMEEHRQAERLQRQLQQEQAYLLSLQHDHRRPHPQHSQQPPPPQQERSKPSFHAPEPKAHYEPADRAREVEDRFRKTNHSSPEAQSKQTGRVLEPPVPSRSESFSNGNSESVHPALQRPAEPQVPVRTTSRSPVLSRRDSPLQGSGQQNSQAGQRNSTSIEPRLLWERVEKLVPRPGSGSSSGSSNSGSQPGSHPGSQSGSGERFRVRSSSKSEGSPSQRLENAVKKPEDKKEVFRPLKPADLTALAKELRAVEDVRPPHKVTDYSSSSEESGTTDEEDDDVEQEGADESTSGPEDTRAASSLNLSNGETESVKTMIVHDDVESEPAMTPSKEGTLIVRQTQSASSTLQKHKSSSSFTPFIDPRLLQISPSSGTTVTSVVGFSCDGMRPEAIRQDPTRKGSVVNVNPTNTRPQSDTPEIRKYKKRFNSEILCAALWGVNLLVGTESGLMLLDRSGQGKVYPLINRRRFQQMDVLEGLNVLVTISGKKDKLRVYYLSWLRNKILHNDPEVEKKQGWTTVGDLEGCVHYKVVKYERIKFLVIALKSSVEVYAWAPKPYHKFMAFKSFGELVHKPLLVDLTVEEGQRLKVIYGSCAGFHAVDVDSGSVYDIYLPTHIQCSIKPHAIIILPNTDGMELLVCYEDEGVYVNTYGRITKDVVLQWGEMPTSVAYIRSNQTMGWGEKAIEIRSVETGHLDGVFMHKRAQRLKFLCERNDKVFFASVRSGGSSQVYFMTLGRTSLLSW"}, "[31]": {"target": "Serine/threonine-protein kinase BRSK1 (Homo sapiens, UniProt Q8TDC3)", "sequence (Q8TDC3 whole entry)": "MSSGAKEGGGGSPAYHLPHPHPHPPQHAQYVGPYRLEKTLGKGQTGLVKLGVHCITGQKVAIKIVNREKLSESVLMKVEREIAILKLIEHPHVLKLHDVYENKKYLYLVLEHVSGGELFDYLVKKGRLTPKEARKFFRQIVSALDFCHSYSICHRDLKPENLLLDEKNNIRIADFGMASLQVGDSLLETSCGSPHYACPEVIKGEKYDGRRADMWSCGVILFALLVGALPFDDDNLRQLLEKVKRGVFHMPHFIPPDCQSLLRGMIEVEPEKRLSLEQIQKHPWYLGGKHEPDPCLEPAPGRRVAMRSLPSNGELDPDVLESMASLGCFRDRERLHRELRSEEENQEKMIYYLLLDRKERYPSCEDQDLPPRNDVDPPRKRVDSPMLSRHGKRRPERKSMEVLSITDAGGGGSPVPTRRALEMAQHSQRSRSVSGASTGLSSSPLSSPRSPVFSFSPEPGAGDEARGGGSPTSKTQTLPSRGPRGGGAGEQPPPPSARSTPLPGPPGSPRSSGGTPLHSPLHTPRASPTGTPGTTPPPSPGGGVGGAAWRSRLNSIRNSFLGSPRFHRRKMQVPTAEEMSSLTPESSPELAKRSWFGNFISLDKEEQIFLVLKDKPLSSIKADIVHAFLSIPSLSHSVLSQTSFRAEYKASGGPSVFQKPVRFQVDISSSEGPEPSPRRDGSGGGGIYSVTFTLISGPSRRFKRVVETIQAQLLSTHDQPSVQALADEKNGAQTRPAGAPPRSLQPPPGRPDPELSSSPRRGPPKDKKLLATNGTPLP"}, "[32]": {"target": "Calcium/calmodulin-dependent protein kinase type II subunit alpha (Homo sapiens, UniProt Q9UQM7)", "test": "Navigating the Kinome. Panel member name: CAMK2A"}},
  "note": "Calls of active or inactive are those of the source.",
  "data": [
    {"smiles": "Clc1cc(NC2CCCCC2)nc(-c2c[nH]c3ncccc23)n1", "values": [
      {"measurement": "Ki", "setting": "[1]", "value": "> 2510 nM (inactive)"},
      {"measurement": "Ki", "setting": "[2]", "value": "316 nM (active)"},
      {"measurement": "Ki", "setting": "[3]", "value": "1580 nM (active)"},
      {"measurement": "Ki", "setting": "[4]", "value": "> 2510 nM (inactive)"},
      {"measurement": "Ki", "setting": "[5]", "value": "> 1580 nM (inactive)"},
      {"measurement": "Ki", "setting": "[6]", "value": "2510 nM (active)"},
      {"measurement": "Ki", "setting": "[7]", "value": "2510 nM (active)"},
      {"measurement": "Ki", "setting": "[8]", "value": "> 3980 nM (inactive)"},
      {"measurement": "Ki", "setting": "[9]", "value": "> 1260 nM (inactive)"},
      {"measurement": "Ki", "setting": "[10]", "value": "1580 nM (active)"},
      {"measurement": "Ki", "setting": "[11]", "value": "3160 nM (active)"},
      {"measurement": "Ki", "setting": "[12]", "value": "> 6310 nM (inactive)"},
      {"measurement": "Ki", "setting": "[13]", "value": "200 nM (active)"},
      {"measurement": "Ki", "setting": "[14]", "value": "1580 nM (active)"},
      {"measurement": "Ki", "setting": "[15]", "value": "501 nM (active)"},
      {"measurement": "Ki", "setting": "[16]", "value": "> 2000 nM (inactive)"},
      {"measurement": "Ki", "setting": "[17]", "value": "> 10000 nM (inactive)"},
      {"measurement": "Ki", "setting": "[18]", "value": "1260 nM (active)"},
      {"measurement": "Ki", "setting": "[19]", "value": "3160 nM (active)"},
      {"measurement": "Ki", "setting": "[20]", "value": "> 2000 nM (inactive)"},
      {"measurement": "Ki", "setting": "[21]", "value": "> 2000 nM (inactive)"},
      {"measurement": "Ki", "setting": "[22]", "value": "7940 nM (active)"},
      {"measurement": "Ki", "setting": "[23]", "value": "1000 nM (active)"},
      {"measurement": "Ki", "setting": "[24]", "value": "501 nM (active)"},
      {"measurement": "Ki", "setting": "[25]", "value": "2510 nM (active)"},
      {"measurement": "Ki", "setting": "Aurora kinase B", "value": "1000 nM (active)"},
      {"measurement": "Ki", "setting": "[26]", "value": "1260 nM (active)"},
      {"measurement": "Ki", "setting": "[27]", "value": "> 6310 nM (inactive)"},
      {"measurement": "Ki", "setting": "[28]", "value": "> 5010 nM (inactive)"},
      {"measurement": "Ki", "setting": "[29]", "value": "3980 nM (active)"},
      {"measurement": "Ki", "setting": "[30]", "value": "> 200 nM (inactive)"},
      {"measurement": "Ki", "setting": "[31]", "value": "2000 nM (active)"},
      {"measurement": "Ki", "setting": "[32]", "value": "> 3160 nM (inactive)"}
    ]}
  ]
}
